Measured values reported in paper PMC8949375, “Design, Green Synthesis and Tailoring of Vitamin E TPGS Augmented Niosomal Nano-Carrier of Pyrazolopyrimidines as Potential Anti-Liver and Breast Cancer Agents with Accentuated Oral Bioavailability” (Pharmaceuticals, 2022).
Read-outs that look alike come from different tables or passages of the source.

Key:
[1] = system: VEGFR-2 protein expression level in MCF-7 cell line; assay: Human VEGF receptor-2 ELISA in MCF-7; assay type: cell-based; set-up: concentration or dose not given beside the values; conditions: MCF-7, ELISA, compared to control
Description: (§1) Total protein was assayed using the method described by Bradford. The Human VEGF receptor-2 ELISA Kit (ab213476), (96 tests) was purchased from (abcam®, Waltham, MA, USA). The kit is a sandwich enzyme immunoassay for the in vitro quantitative measurement of human VEGFR-2 in tissue homogenates, cell lysates and other biological fluids according to the manufacturer’s instructions.

HepG2 cell line = assay: MTT cytotoxicity assay, HepG2; assay type: cell-based; conditions: Homo sapiens
From the text: (§2) The human HCC cell line, HEPG-2, was obtained from the American Type Culture Collection and used to evaluate the effects of the following drugs. MCF-7(ATCC® HTB-22TM, Manassas, VA, USA) breast cancer cells were derived from mammary gland or breast at a metastatic site. […] The human Caco-2 cell line, Caco-2, was obtained from the American Type Culture Collection and used to evaluate the effects of the following drugs. […], Manassas, VA, USA), epithelial-like lung carcinoma, was derived from lung tissue at a metastatic site. The human A549 cell line, A549, was obtained from the American Type Culture Collection and used to evaluate the effects of the following drugs. […] LLC., Burlington, VT, USA). Penicillin/streptomycin (Gibco®, Grand Island, NY, USA) was applied at 100 units/mL and 100 μg/mL, respectively. Growth inhibition was determined by classic MTT assay. In brief, HEPG2, A549, MCF-7 and Caco-2 cells were added to a cell culture MTT assay plate at a concentration of 5 × 10^3 cells/well in 1640 medium and cultured overnight. The different treatments were added on day 1 according to the calculated doses except on the control well and standard, then incubated for 24 h.

MCF-7 cell line = assay: MTT cytotoxicity assay, MCF-7; assay type: cell-based; conditions: Homo sapiens, MCF7, read-out: IC50 MCF-7 Breast Cancer
From the text: as §2

CaCo-2 cell line = assay: MTT cytotoxicity assay, CaCo-2; assay type: cell-based; conditions: Homo sapiens, read-out: IC50 CaCo-2 Colon Cancer
From the text: (§3) • HepG2 [HEPG2] (ATCC® HB-8065™, Manassas, VA, USA) epithelial hepatocellular carcinoma was derived from the liver tissue of a person (a well-differentiated hepatocellular carcinoma). The human HCC cell line, HEPG-2, was obtained from the American Type Culture Collection and used to evaluate the effects of the following drugs. MCF-7(ATCC® HTB-22™, Manassas, VA, USA) breast cancer cells were derived from mammary gland or breast at a metastatic site. The human MCF-7 cell line, MCF-7, was obtained from the American Type Culture Collection and used to evaluate the effects of the following drugs. • Caco 2 [Caco2] (ATCC® HTB 37™, Manassas, VA, USA) epithelial colorectal adenocarcinoma was derived from the colon at a metastatic site. The human Caco-2 cell line, Caco-2, was obtained from the American Type Culture Collection and used to evaluate the effects of the following drugs. A549 (ATCC® CCL-185™, Manassas, VA, USA), epithelial-like lung carcinoma, was derived from lung tissue at a metastatic site. The human A549 cell line, A549, was obtained from the American Type Culture Collection and used to evaluate the effects of the following drugs.
(§4) HEPG2, A549, MCF-7 and Caco-2 cells were maintained in a monolayer culture in a T-25 flask at 5% CO2 and 37 °C in DMEM (Lonza, Verviers, Belgium) and supplemented with 10% (v/v) FBS (Sigma-Aldrich Co. LLC., Burlington, VT, USA). Penicillin/streptomycin (Gibco®, Grand Island, NY, USA) was applied at 100 units/mL and 100 µg/mL, respectively.
(§5) Growth inhibition was determined by classic MTT assay. In brief, HEPG2, A549, MCF-7 and Caco-2 cells were added to a cell culture MTT assay plate at a concentration of 5 × 10^3 cells/well in 1640 medium and cultured overnight. The different treatments were added on day 1 according to the calculated doses except on the control well and standard, then incubated for 24 h. Measurement was achieved using a microplate reader (Model 550, Bio-Rad, Hercules, CA, USA).

[2] = system: VEGF gene expression level in HepG2 cell line; assay: Real-time PCR of VEGF gene expression, HepG2; assay type: cell-based, human; conditions: HepG2, 3 days of treatment, compared to control, in words
Description: RT-PCR was applied to evaluate the VEGF gene expression level. Briefly, total RNA was extracted, and the extracted total RNA concentration was determined using a NanoDrop 2000 spectrophotometer (Thermo Fisher, Waltham, MA, USA). To determine the relative expression levels, the 2^−ΔΔCT method was used. NCBI/Primer Blast was used to define the primer sequences. The experiments were performed in quadruplicate. The primer sequences of VEGF and β-actin genes are listed below: […]

[3] = system: HepG2, MCF-7, A-549 and CaCo-2 cell lines; assay: MTT cytotoxicity assay, summary over all tested cell lines; assay type: cell-based, human; conditions: Homo sapiens; range over compounds and cell lines; read-out: IC50 values versus all tested cell lines (collective range)
From the text: as §3, §4, §5

[4] = system: VEGFR-2 protein expression level in HepG2 cell line; assay: Human VEGF receptor-2 ELISA in HepG2; assay type: cell-based; set-up: concentration or dose not given beside the values; conditions: compared to control
Description: as §1

[5] = system: VEGF protein expression level in HepG2 cell line; assay: VEGF ELISA in HepG2 cell culture supernatant; assay type: cell-based, human; set-up: concentration or dose not given beside the values; conditions: compared to control
Description: (§6) Total protein was assayed using the method described by Bradford. The VEGF ELISA Assay Kit (VEGF) and ELISA Kit, (#VGF31-[…]) were purchased from (Eagle Biosciences CO., LTD, Amherst, NH, USA). The kit is a sandwich enzyme immunoassay for the in vitro quantitative determination of VEGF concentrations in cell culture supernates, serum and plasma according to the manufacturer's instructions.

[6] = system: VEGF protein expression level in MCF-7 cell line; assay: VEGF ELISA in MCF-7 cell culture supernatant; assay type: cell-based, human; set-up: concentration or dose not given beside the values; conditions: MCF-7, ELISA, compared to control
Description: as §6

A-549 cell line = assay: MTT cytotoxicity assay, A-549; assay type: cell-based; conditions: Homo sapiens, A549, read-out: IC50 A-549 Lung Carcinoma
From the text: as §3, §4, §5

Cc1ccc(N=Nc2c(N)nn3c(N)c(N=Nc4ccc(S(=O)(=O)N=C(N)N)cc4)c(O)nc23)cc1 [Compound 2a, 4-((2,7-Diamino-5-hydroxy-3-(4-tolyldiazenyl)pyrazolo[1,5-a]pyrimidin-6-yl)diazenyl)-N-(diaminomethylene)benzenesulfonamide]
VEGFR-2 24 h % Inhibition ([1]; 24 h): 50% | VEGFR-2 72 h % Inhibition ([1]; 72 h): 50% | IC50 (HepG2 cell line; TPGS-coated vs uncoated niosomes vs pure compound, read-out: IC50 Hepg2 Liver Carcinoma): 6.5 µM | IC50 (HepG2 cell line; read-out: IC50 HepG2 Livercarcinoma): 6.2 µM | IC50 (MCF-7 cell line): 20 µM | IC50 (CaCo-2 cell line): 12.5 µM | VEGF gene expression level [2]: great inhibition | melting point: 268 to 270 °C | IC50 [3]: 6 to 50 µM | VEGFR-2 24 h % Inhibition ([4]; 24 h): 47.4% | VEGFR-2 72 h % Inhibition ([4]; 72 h): 38.5% | VEGF 24 h % Inhibition ([5]; 24 h): 38.5% | VEGF 72 h % Inhibition ([5]; 72 h): 33.3% | VEGF 24 h % Inhibition ([6]; 24 h): 40% | VEGF 72 h % Inhibition ([6]; 72 h): 50% | IC50 (A-549 cell line): 10 µM
